Results published in publication PMC4049574 (PLoS ONE, 2014).
Counter-ions that a name gives are not always drawn.

Key:
[1] = target: T1, human mitochondrial NAD(P)+-dependent malic enzyme (m-NAD(P)-ME, ME2) (Homo sapiens, UniProt P23368); assay: enzyme activation assay ([…] nm), purified enzyme; allosteric-site mutant controls; conditions: read-out: ^3 ^, ^4m-NAD(P)-ME WT
[2] = target: T1, human mitochondrial NAD(P)+-dependent malic enzyme (m-NAD(P)-ME, ME2); assay: spectrophotometric NADH assay at […] nm; fumarate competition/rescue; allosteric-site mutant controls; format: biochemical

T1 sequence (P23368 19-584): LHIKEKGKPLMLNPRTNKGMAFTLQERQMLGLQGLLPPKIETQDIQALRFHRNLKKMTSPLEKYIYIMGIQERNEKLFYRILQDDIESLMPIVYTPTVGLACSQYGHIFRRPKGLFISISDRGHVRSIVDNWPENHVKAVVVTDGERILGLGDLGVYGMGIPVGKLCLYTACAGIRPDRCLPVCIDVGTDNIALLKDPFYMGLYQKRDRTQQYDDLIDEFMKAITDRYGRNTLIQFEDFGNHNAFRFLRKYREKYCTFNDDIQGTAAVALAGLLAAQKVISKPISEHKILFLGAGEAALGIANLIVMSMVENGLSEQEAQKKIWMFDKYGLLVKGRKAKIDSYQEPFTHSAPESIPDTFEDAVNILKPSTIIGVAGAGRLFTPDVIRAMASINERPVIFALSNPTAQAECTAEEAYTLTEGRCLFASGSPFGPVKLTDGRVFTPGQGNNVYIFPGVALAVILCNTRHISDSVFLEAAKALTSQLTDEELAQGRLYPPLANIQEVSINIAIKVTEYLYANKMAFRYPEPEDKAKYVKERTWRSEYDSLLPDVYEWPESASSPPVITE

With CCOC(=O)/C=C/C(=O)O [Monoethyl fumarate] as the molecule, how does the fold induction at 10000 µM [1] read?
Its fold induction at 10000 µM is 1.83 ± 0.04.

For CCOC(=O)/C=C(\O)C(=O)OCC [diethyl oxalacetate], which IC50 [2] is on record?
The IC50 was about 2500 µM.

C/C(=C\C(=O)O)C(=O)O [Mesaconate] was tested. Which fold induction at 20000 µM [1] did it give?
Its fold induction at 20000 µM is 1.75 ± 0.16.

For COC(=O)/C=C/C(=O)O [Monomethyl fumarate], which fold induction at 5000 µM [1] is on record?
Its fold induction at 5000 µM is 2.78 ± 0.08.
